Patent publication US6737383B1, “Herbicidal oxadiazolidines” (priority 1999, dated 2004)

Assays:
crabgrass = experiment: Test B pre/postemergence crabgrass; type: in vivo, Digitaria sanguinalis
In short: (§1)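 Test chemicals in a non-phytotoxic solvent mixture with surfactant were sprayed preemergence onto planted seeds and postemergence onto plants 2 to 18 cm tall (1- to 4-leaf stage). After twelve to sixteen days in a greenhouse, injury was visually rated against untreated controls from 0 (no effect) to 10 (complete control).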

cocklebur = experiment: Test B pre/postemergence cocklebur; type: in vivo, Xanthium strumarium
In short: as §1

sugar beet = experiment: Test B pre/postemergence sugar beet; type: in vivo, Beta vulgaris
In short: as §1

rice = experiment: Test B flood test rice; type: in vivo, Oryza sativa
In short: (§2)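 Plants were grown to the 2-leaf stage before treatment with test chemical, then held in a greenhouse for twelve to sixteen days. Injury was visually rated against untreated controls on a 0–10 scale, where 0 is no effect and 10 is complete control.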

duck salad = experiment: Test B flood test duck salad; type: in vivo, Heteranthera limosa
In short: as §2

surinam grass = experiment: Test B pre/postemergence surinam grass; type: in vivo, Brachiaria decumbens
In short: as §1

blackgrass = experiment: Test B pre/postemergence blackgrass; type: in vivo, Alopecurus myosuroides
In short: as §1

bamyardgrass = experiment: Test B flood test barnyardgrass; type: in vivo, Echinochloa crus-galli
In short: as §2

giant foxtail = experiment: Test B pre/postemergence giant foxtail; type: in vivo, Setaria faberii
In short: as §1

purple nutsedge = experiment: Test B pre/postemergence purple nutsedge; type: in vivo, Cyperus rotundus
In short: as §1

soybean = experiment: Test B pre/postemergence soybean; type: in vivo, Glycine max
In short: as §1

rape = experiment: Test B pre/postemergence rape; type: in vivo, Brassica napus
In short: as §1

velvetleaf = experiment: Test B pre/postemergence velvetleaf; type: in vivo, Abutilon theophrasti
In short: as §1

corn = experiment: Test B pre/postemergence corn; type: in vivo, Zea mays
In short: as §1

smallflower flatsedge = experiment: Test B flood test smallflower flatsedge; type: in vivo, Cyperus difformis
In short: as §2

bedstraw = experiment: Test B pre/postemergence bedstraw; type: in vivo, Galium aparine
In short: as §1

wheat = experiment: Test B pre/postemergence wheat; type: in vivo, Triticum aestivum
In short: as §1

[1] = Postemergence, Rate 62 g/ha, scale 0 to 10, 0 is no effect, 10 is complete control
[2] = Postemergence, Rate 250 g/ha, scale 0 to 10, 0 no effect, 10 complete control
[3] = Preemergence, Rate 31 g/ha, visual rating, scale 0 to 10 (0 no effect, 10 complete control)
[4] = Preemergence, Rate 62 g/ha, scale 0 to 10, 0 is no effect, 10 is complete control
[5] = Preemergence, Rate 125 g/ha, scale 0 to 10 (0 no effect, 10 complete control)
[6] = Preemergence, Rate 250 g/ha, scale of 0 to 10 where 0 is no effect and 10 is complete control
[7] = Rate 31 g/ha, Postemergence, scale 0 to 10
[8] = Rate 125 g/ha, Postemergence, scale 0 to 10, 0 no effect, 10 complete control
[9] = Rate 125 g/ha, Postemergence section (flood test species), scale 0 to 10, 0 no effect, 10 complete control
[10] = Rate 500 g/ha, Postemergence section of Table B, 0 to 10 scale (0 no effect, 10 complete control)
[11] = flood test, listed under Postemergence, Rate 250 g/ha, scale 0 to 10, 0 no effect, 10 complete control

CCN(C(=O)n1oc(=O)n(-c2ccccc2OC)c1=O)C1CCCCC1 [Compound 29]
3: Plant response rating, Crabgrass (crabgrass; [4]) | Plant response rating, Giant foxtail (giant foxtail; [6])
0: Crabgrass plant response rating (crabgrass; [1]) | Crabgrass plant response rating (crabgrass; [2]) | Crabgrass plant response rating (crabgrass; [3]) | Crabgrass plant response rating (crabgrass; [7]) | Crabgrass plant response rating (crabgrass; [8]) | Cocklebur plant response rating (cocklebur; [1]) | Cocklebur plant response rating (cocklebur; [2]) | Cocklebur plant response rating (cocklebur; [3]) | Plant response rating, Cocklebur (cocklebur; [4]) | Plant response rating, Cocklebur (cocklebur; [5]) | Plant response rating, Cocklebur (cocklebur; [6]) | Cocklebur plant response rating (cocklebur; [7]) | Cocklebur plant response rating (cocklebur; [8]) | Sugarbeets plant response rating (sugar beet; [1]) | Sugarbeets plant response rating (sugar beet; [2]) | Sugarbeets plant response rating (sugar beet; [3]) | Plant response rating, Sugarbeets (sugar beet; [4]) | Plant response rating, Sugarbeets (sugar beet; [5]) | Plant response rating, Sugarbeets (sugar beet; [6]) | Sugarbeets plant response rating (sugar beet; [8]) | Rice plant response rating (rice; [1]) | Rice plant response rating (rice; [9]) | Rice plant response rating (rice; [10]) | Rice plant response rating (rice; [11]) | Ducksalad plant response rating (duck salad; [1]) | Ducksalad plant response rating (duck salad; [9]) | Ducksalad plant response rating (duck salad; [10]) | Ducksalad plant response rating (duck salad; [11]) | B. signalgrass plant response rating (surinam grass; [1]) | B. signalgrass plant response rating (surinam grass; [2]) | B. signalgrass plant response rating (surinam grass; [3]) | Plant response rating, B. signalgrass (surinam grass; [4]) | Plant response rating, B. signalgrass (surinam grass; [5]) | Plant response rating, B. signalgrass (surinam grass; [6]) | B. signalgrass plant response rating (surinam grass; [7]) | B. signalgrass plant response rating (surinam grass; [8]) | Blackgrass plant response rating (blackgrass; [1]) | Blackgrass plant response rating (blackgrass; [2]) | Blackgrass plant response rating (blackgrass; [3]) | Plant response rating, Blackgrass (blackgrass; [4]) | Plant response rating, Blackgrass (blackgrass; [5]) | Blackgrass plant response rating (blackgrass; [7]) | Blackgrass plant response rating (blackgrass; [8]) | Barnyardgrass plant response rating (bamyardgrass; [1]) | Barnyardgrass plant response rating (bamyardgrass; [9]) | Barnyardgrass plant response rating (bamyardgrass; [10]) | Barnyardgrass plant response rating (bamyardgrass; [11]) | Giant foxtail plant response rating (giant foxtail; [1]) | Giant foxtail plant response rating (giant foxtail; [2]) | Giant foxtail plant response rating (giant foxtail; [3]) | Plant response rating, Giant foxtail (giant foxtail; [4]) | Giant foxtail plant response rating (giant foxtail; [7]) | Giant foxtail plant response rating (giant foxtail; [8]) | Nutsedge plant response rating (purple nutsedge; [1]) | Nutsedge plant response rating (purple nutsedge; [2]) | Nutsedge plant response rating (purple nutsedge; [3]) | Plant response rating, Nutsedge (purple nutsedge; [4]) | Plant response rating, Nutsedge (purple nutsedge; [5]) | Plant response rating, Nutsedge (purple nutsedge; [6]) | Nutsedge plant response rating (purple nutsedge; [7]) | Nutsedge plant response rating (purple nutsedge; [8]) | Soybean plant response rating (soybean; [3]) | Plant response rating, Soybean (soybean; [4]) | Plant response rating, Soybean (soybean; [5]) | Plant response rating, Soybean (soybean; [6]) | Rape plant response rating (rape; [1]) | Rape plant response rating (rape; [2]) | Rape plant response rating (rape; [3]) | Plant response rating, Rape (rape; [4]) | Plant response rating, Rape (rape; [5]) | Plant response rating, Rape (rape; [6]) | Rape plant response rating (rape; [7]) | Rape plant response rating (rape; [8]) | Velvetleaf plant response rating (velvetleaf; [1]) | Velvetleaf plant response rating (velvetleaf; [2]) | Velvetleaf plant response rating (velvetleaf; [3]) | Plant response rating, Velvetleaf (velvetleaf; [4]) | Plant response rating, Velvetleaf (velvetleaf; [5]) | Plant response rating, Velvetleaf (velvetleaf; [6]) | Velvetleaf plant response rating (velvetleaf; [8]) | Corn plant response rating (corn; [1]) | Corn plant response rating (corn; [2]) | Corn plant response rating (corn; [3]) | Plant response rating, Corn (corn; [4]) | Plant response rating, Corn (corn; [5]) | Plant response rating, Corn (corn; [6]) | Corn plant response rating (corn; [7]) | Corn plant response rating (corn; [8]) | S. Flatsedge plant response rating (smallflower flatsedge; [1]) | S. Flatsedge plant response rating (smallflower flatsedge; [9]) | S. Flatsedge plant response rating (smallflower flatsedge; [11]) | Bedstraw plant response rating (bedstraw; [1]) | Bedstraw plant response rating (bedstraw; [2]) | Bedstraw plant response rating (bedstraw; [3]) | Plant response rating, Bedstraw (bedstraw; [4]) | Plant response rating, Bedstraw (bedstraw; [5]) | Plant response rating, Bedstraw (bedstraw; [6]) | Bedstraw plant response rating (bedstraw; [7]) | Bedstraw plant response rating (bedstraw; [8]) | Wheat plant response rating (wheat; [1]) | Wheat plant response rating (wheat; [2]) | Wheat plant response rating (wheat; [3]) | Plant response rating, Wheat (wheat; [4]) | Plant response rating, Wheat (wheat; [5]) | Plant response rating, Wheat (wheat; [6]) | Wheat plant response rating (wheat; [8])
2: Plant response rating, Blackgrass (blackgrass; [6]) | Soybean plant response rating (soybean; [1]) | Soybean plant response rating (soybean; [2]) | Soybean plant response rating (soybean; [8])
4: Plant response rating, Crabgrass (crabgrass; [5])
7: Plant response rating, Crabgrass (crabgrass; [6])
1: Plant response rating, Giant foxtail (giant foxtail; [5])
